The source of these data is ChEMBL document CHEMBL1201862, “PubChem BioAssay data set” (2004).

Some test systems named below: COLO 205; UACC-62; KM12; SF-539; SK-MEL-28; HL-60; CAKI-1; SN12C; RPMI-8226; SW-620; NCI-H460; HOP-62; TK-10; HCT-15; SNB-75; NCI-H522.
Holding throughout (assay): inhibition of tumour cell growth, NCI panel, 48 h

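Following 48 hours of exposure in 96-well plates, responses at five concentrations were used to interpolate endpoints linearly. The concentration for 50% growth inhibition is given as GI50.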 The source made the active and inactive calls. No stated cut-off is given here; in the data, active = GI50 up to about 1.1 µM and inactive = higher. A value given as a limit tells only on which side of the number the result lay.

For `COc1ccc2c3c([nH]c2c1[N+](=O)[O-])C(C)N(C)CC3` (centres undefined), the GI50 in the test on COLO 205 is 50.4 µM (inactive); in the test on UACC-62 it was > 100 µM (inactive); in the test with KM12, 51.6 µM (inactive); with SF-539, > 100 µM (inactive); with SK-MEL-28, > 100 µM (inactive); in the test with HL-60, 39.6 µM (inactive). For the same compound, the GI50 is 36.6 µM (inactive) in the test with CAKI-1; > 100 µM (inactive) in the test with SN12C; 77.4 µM (inactive) in the test on RPMI-8226; 29.6 µM (inactive) with SW-620; > 100 µM (inactive) in the test with NCI-H460; > 100 µM (inactive) with HOP-62. Besides, the GI50 in the test on TK-10 was > 100 µM (inactive); with HCT-15, 80.4 µM; in the test on SNB-75, 72.3 µM (inactive); with NCI-H522, > 100 µM (inactive).

`CC1=CC(=O)c2c(C=O)c(O)c(O)c(C(C)C)c2C1=O`: the GI50 with COLO 205 is 25.1 µM (inactive); in the test on UACC-62, 20.3 µM (inactive); with SF-539 it was 25.6 µM (inactive); in the test on SK-MEL-28, 34 µM (inactive); in the test on HL-60, 25.6 µM (inactive); in the test on CAKI-1 it was 21.2 µM (inactive). For the same compound, the GI50 is 35.1 µM (inactive) with SN12C; 19.8 µM (inactive) in the test on RPMI-8226; 28.8 µM (inactive) in the test on NCI-H460; 32.5 µM (inactive) in the test with HOP-62; 26.2 µM in the test with HCT-15; 40.7 µM (inactive) in the test on SNB-75. The GI50 in the test with NCI-H522 was 12.4 µM (inactive).

In the case of `S=C(Nc1ccccc1)Nc1ccccc1SC(/C=C/NNC1=NN=C(c2ccccc2)C(c2ccccc2)N1)c1ccccc1` (centres undefined), the GI50 in the test with COLO 205 was > 100 µM (inactive); in the test on UACC-62 it was > 100 µM (inactive); in the test with KM12, > 100 µM (inactive); in the test on SF-539 it was 83.9 µM (inactive); with SK-MEL-28, > 100 µM (inactive); with HL-60 it was 10.4 µM (inactive). The GI50 was > 100 µM (inactive) in the test on CAKI-1; > 100 µM (inactive) with SN12C; 59 µM (inactive) with RPMI-8226; > 100 µM (inactive) with SW-620; > 100 µM (inactive) in the test on NCI-H460; 16.7 µM (inactive) in the test on HOP-62. For the same compound, the results for the GI50 with TK-10, with HCT-15 and in the test on NCI-H522 were > 100 µM (inactive), more than 100 µM and 8.85 µM (inactive), respectively.

Turning to `COc1c(O)c2c3c(cc(C)cc3c1C(C)C)OC2`, the GI50 in the test on COLO 205, in the test with UACC-62, with KM12, in the test on SF-539, in the test on SK-MEL-28 and with HL-60 was > 100 µM (inactive) throughout. Moreover, the GI50 in the test with SN12C was > 100 µM (inactive); with RPMI-8226, > 100 µM (inactive); in the test with SW-620, > 100 µM (inactive); in the test on NCI-H460 it was > 100 µM (inactive); in the test with TK-10, > 100 µM (inactive); in the test with HCT-15 it was more than 100 µM. Besides, the GI50 in the test on SNB-75 and in the test on NCI-H522 was > 100 µM (inactive) in each case.

Regarding `Cc1ccc(-c2nc3c(C(=O)NCCN(C)C)cccc3[nH]2)cc1`, the GI50 with COLO 205 was 8 µM (inactive); in the test on UACC-62, 18.1 µM (inactive); with KM12 it was 20 µM (inactive); with SF-539, 9.12 µM (inactive); in the test on SK-MEL-28, 18.4 µM (inactive); in the test on HL-60, 14.2 µM (inactive). Besides, the GI50 in the test with CAKI-1 was 23.5 µM (inactive); in the test on SN12C, 11.5 µM (inactive); in the test with SW-620, 6.27 µM (inactive); with NCI-H460, 4.89 µM (inactive); in the test with HOP-62 it was 15.9 µM (inactive); with TK-10 it was 17.7 µM (inactive). Moreover, the GI50 is 13.9 µM in the test with HCT-15 and 18 µM (inactive) in the test on SNB-75.

Regarding `CC(=O)Oc1c(C)c(-c2ccccc2)c(C)c(-c2ccccc2)c1C(=S)c1ccccc1`, the GI50 is > 100 µM (inactive) in the test on COLO 205; > 100 µM (inactive) with UACC-62; > 100 µM (inactive) in the test with KM12; > 100 µM (inactive) with SF-539; > 100 µM (inactive) with SK-MEL-28; 35.7 µM (inactive) in the test with HL-60. The GI50 in the test on SN12C is > 100 µM (inactive); in the test with RPMI-8226 it was 70.8 µM (inactive); in the test with NCI-H460, > 100 µM (inactive); in the test with HOP-62, > 100 µM (inactive); with TK-10, > 100 µM (inactive); in the test on HCT-15, more than 100 µM. Also, the GI50 in the test on SNB-75 and in the test on NCI-H522 was > 100 µM (inactive) throughout.

Take `COC(=O)[C@@]12C(=O)C=CC(=O)C1C1C(=CC2C)OC2OC3(CCCCC3)OC21` (some centres undefined): the GI50 in the test on COLO 205 is 14.2 µM (inactive); in the test on UACC-62, 15.2 µM (inactive); in the test on KM12, 20 µM (inactive); in the test with SK-MEL-28, 16.9 µM (inactive); in the test with HL-60 it was 3.85 µM (inactive); in the test on CAKI-1, 18.2 µM (inactive). The GI50 in the test on SN12C was 17.7 µM (inactive); in the test on RPMI-8226, 4.89 µM (inactive); in the test on SW-620, 19.3 µM (inactive); in the test with NCI-H460, 18.8 µM (inactive); in the test with HOP-62, 19.9 µM (inactive); in the test with TK-10, 17.3 µM (inactive). The values for the GI50 with HCT-15, with SNB-75 and in the test with NCI-H522 were 13.2 µM, 18.9 µM (inactive) and 9.71 µM (inactive), respectively.

On to `CC1=C(O)C(=O)C2C(=O)C1C1Cc3ccccc3C21` (centres undefined), for which the GI50 in the test on COLO 205, in the test on UACC-62, in the test with KM12, in the test with SF-539, with SK-MEL-28 and with HL-60 was > 100 µM (inactive) throughout. The GI50 in the test with CAKI-1 is > 100 µM (inactive); in the test on RPMI-8226, > 100 µM (inactive); in the test on SW-620, > 100 µM (inactive); in the test with HOP-62, > 100 µM (inactive); in the test with TK-10 it was > 100 µM (inactive); in the test on HCT-15 it was more than 100 µM. Also, the GI50 with SNB-75 was 60.5 µM (inactive); with NCI-H522, > 100 µM (inactive).

Regarding `Cc1c(C(=O)/C=C/c2ccccc2O)c(=O)n(-c2ccccc2)n1C`, the GI50 in the test with COLO 205 was 26.4 µM (inactive); in the test on UACC-62, 29 µM (inactive); in the test with KM12 it was > 10 µM (inactive); in the test with SF-539, 19.8 µM (inactive); with SK-MEL-28 it was 25.1 µM (inactive); with CAKI-1, 21.8 µM (inactive). Besides, the GI50 with SN12C was 21 µM (inactive); in the test with SW-620, 15.1 µM (inactive); in the test with NCI-H460 it was 12.9 µM (inactive); in the test with TK-10, 90.6 µM (inactive); in the test on HCT-15 it was 24.2 µM; with SNB-75 it was 50.6 µM (inactive). Besides, the GI50 with NCI-H522 was 18.1 µM (inactive).

For the compound `O=C(O)c1c(-c2cccc3ccccc23)sc(-c2cccc3ccccc23)c1C(=O)O`, the GI50 was > 100 µM (inactive) in the test on COLO 205; 46.1 µM (inactive) in the test with UACC-62; 36.6 µM (inactive) with KM12; > 100 µM (inactive) with SF-539; > 100 µM (inactive) in the test with SK-MEL-28; > 100 µM (inactive) in the test on HL-60. The GI50 with SN12C was > 100 µM (inactive); with RPMI-8226, 58.1 µM (inactive); with SW-620, > 100 µM (inactive); with NCI-H460 it was > 100 µM (inactive); with TK-10 it was > 100 µM (inactive); in the test on HCT-15, more than 100 µM. The GI50 in the test with SNB-75 is > 100 µM (inactive); in the test on NCI-H522, 74.8 µM (inactive).

`Cc1cccc(C)c1NC(=O)CCCC(=O)C(C#N)c1ccccc1` (centres undefined): the GI50 was > 100 µM (inactive) in the test with COLO 205; > 10 µM (inactive) in the test with UACC-62; > 10 µM (inactive) in the test with KM12; > 10 µM (inactive) in the test with SF-539; > 100 µM (inactive) with SK-MEL-28; > 100 µM (inactive) with HL-60. Besides, the GI50 in the test on CAKI-1 is > 100 µM (inactive); in the test on SN12C it was > 10 µM (inactive); in the test with RPMI-8226 it was > 100 µM (inactive); with SW-620, > 100 µM (inactive); in the test on NCI-H460 it was > 10 µM (inactive); with HOP-62, > 10 µM (inactive). Further, the GI50 is more than 10 µM with HCT-15, > 100 µM (inactive) in the test on SNB-75 and > 100 µM (inactive) in the test with NCI-H522.

With `O=C1CC(c2ccccc2)NCN1` (centres undefined), the GI50 with COLO 205, in the test on UACC-62, in the test on KM12, with SK-MEL-28, in the test on HL-60 and with CAKI-1 was > 100 µM (inactive) each time. The GI50 with SN12C is > 100 µM (inactive); in the test on RPMI-8226 it was > 100 µM (inactive); in the test on SW-620 it was > 100 µM (inactive); with HOP-62 it was > 100 µM (inactive); in the test with TK-10, > 100 µM (inactive); in the test on HCT-15, more than 100 µM. For the same compound, the GI50 with SNB-75 and in the test on NCI-H522 was > 100 µM (inactive) each time.

Turning to `O=C1[C@H](Cl)[C@H]2c3cc4ccccc4nc3Oc3ccccc3N12`, the GI50 is 54.8 µM (inactive) in the test with COLO 205; 18.3 µM (inactive) with UACC-62; 33.3 µM (inactive) in the test on KM12; 33 µM (inactive) in the test with SK-MEL-28; 25.5 µM (inactive) with HL-60; 38.7 µM (inactive) in the test with CAKI-1. Further, the GI50 is 43.4 µM (inactive) in the test with SN12C; 22.6 µM (inactive) in the test with RPMI-8226; > 100 µM (inactive) in the test on SW-620; 53.7 µM (inactive) in the test on NCI-H460; 35.4 µM (inactive) with HOP-62; > 100 µM (inactive) in the test with TK-10. For the same compound, the results for the GI50 in the test with HCT-15, in the test on SNB-75 and in the test on NCI-H522 were 43 µM, 1.4 µM (inactive) and 24.3 µM (inactive), respectively.

With `O=C(O)c1c2c(c(C(=O)O)c3ccccc13)-c1ccccc1-2`, the GI50 in the test with COLO 205 was 71.3 µM (inactive); in the test with UACC-62, 22.9 µM (inactive); with KM12 it was 38.4 µM (inactive); in the test with SF-539 it was 28.7 µM (inactive); with SK-MEL-28 it was 20.3 µM (inactive); with HL-60, 36.4 µM (inactive). For the same compound, the GI50 with SN12C is 35.1 µM (inactive); in the test on RPMI-8226, 40.2 µM (inactive); in the test with SW-620 it was 36.8 µM (inactive); in the test on HOP-62 it was 31.7 µM (inactive); in the test with TK-10, 36.1 µM (inactive); in the test on SNB-75 it was 36.7 µM (inactive). Further, in the test with NCI-H522, the GI50 is 35.2 µM (inactive).
